In paper PMC11557314 (Frontiers in Pharmacology, 2024):
Read-outs that look alike come from different tables or passages of the source. Where no end group is shown, it is not given here.

Assays:
hDOPr = hDOPr (Homo sapiens, UniProt P41143); experiment: Competitive radio binding assay with [3H]-diprenorphine on hDOPr-CHO cell membranes; conditions: read-out: Ki hDOPr; [3H]-diprenorphine 1 nM, 60 min 25°C; mean ± SEM
hKOPr = hKOPr (Homo sapiens, UniProt P41145); experiment: biochemical; conditions: for Emax: read-out: Efficacy at hKOPr Emax
hMOPr = hMOPr (Homo sapiens, UniProt P35372); format: biochemical; conditions: for EC50: read-out: hMOPr EC50, stimulation of [35S]GTPγS binding
[1] = tested on: p38 phosphorylation in hKOPr-CHO cells; experiment: Western blot of phospho-p38 in hKOPr-CHO cells; format: cell-based, human; conditions: 1 µM, 10 min, ratio phosphorylated to non-phosphorylated protein
Experimental: hKOPr-CHO cells were seeded in 10-cm dishes and cultured until they reached 70%–80% confluency. Overnight serum starvation was initiated by replacing the culture medium with FBS-free medium [DMEM supplemented with 100 μg/mL GlutaMAX, 100 μg/mL penicillin/streptomycin, and 400 μg/mL geneticin (G418)]. […] The FBS-free medium was used as the control. After the treatment, cells were rinsed and harvested in cold PBS by scraping the dishes using a rubber policeman. Cell suspensions were centrifuged at 4°C for 7 min at 21,000 g, and the supernatants were removed. Pellets were then resuspended and washed in ice-cold PBS. […] Total proteins of the supernatant cell lysate were quantified by the biuret assay (Carl Roth GmbH, Karlsruhe, Germany). Antibody linearity ranges were determined for target proteins and the internal loading control, and the combined linear range was then used to determine how much sample should be loaded in order to produce a linear signal response. […] Immunoreactive bands were detected by incubating the membranes in a horseradish peroxidase-conjugated secondary antibody (1:5,000, Invitrogen), followed by incubation with enhanced chemiluminescence reagent (Merck Immobilon). […] To avoid errors introduced by stripping the membranes, total and phosphorylated proteins were analyzed from parallel gels. […]

[2] = read-out: Potency at hKOPr EC50
[3] = read-out: hKOPr EC50, stimulation of [35S]GTPγS binding

Sequence of hMOPr (P35372 whole entry): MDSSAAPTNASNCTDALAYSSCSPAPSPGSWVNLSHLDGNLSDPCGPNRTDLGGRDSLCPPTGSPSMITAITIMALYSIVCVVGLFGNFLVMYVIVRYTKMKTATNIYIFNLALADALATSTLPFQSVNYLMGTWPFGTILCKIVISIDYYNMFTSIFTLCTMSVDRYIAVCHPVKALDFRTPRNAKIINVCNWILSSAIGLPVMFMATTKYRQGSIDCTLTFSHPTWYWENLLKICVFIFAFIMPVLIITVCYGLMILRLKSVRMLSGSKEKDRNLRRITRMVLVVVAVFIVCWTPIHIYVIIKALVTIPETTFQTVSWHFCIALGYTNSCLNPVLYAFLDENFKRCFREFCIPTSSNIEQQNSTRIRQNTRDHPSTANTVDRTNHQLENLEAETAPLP
Sequence of hKOPr (P41145 whole entry): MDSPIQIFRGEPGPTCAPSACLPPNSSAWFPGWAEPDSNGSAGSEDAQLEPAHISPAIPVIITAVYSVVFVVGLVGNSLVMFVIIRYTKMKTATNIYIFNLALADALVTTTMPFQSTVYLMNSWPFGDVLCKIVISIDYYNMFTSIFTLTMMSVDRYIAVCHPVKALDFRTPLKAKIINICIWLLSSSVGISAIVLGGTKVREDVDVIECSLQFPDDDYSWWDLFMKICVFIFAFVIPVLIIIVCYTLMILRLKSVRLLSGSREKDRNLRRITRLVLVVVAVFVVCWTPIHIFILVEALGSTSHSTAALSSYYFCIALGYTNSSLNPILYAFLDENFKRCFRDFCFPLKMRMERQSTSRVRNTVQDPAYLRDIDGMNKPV
Sequence of hDOPr (P41143 whole entry): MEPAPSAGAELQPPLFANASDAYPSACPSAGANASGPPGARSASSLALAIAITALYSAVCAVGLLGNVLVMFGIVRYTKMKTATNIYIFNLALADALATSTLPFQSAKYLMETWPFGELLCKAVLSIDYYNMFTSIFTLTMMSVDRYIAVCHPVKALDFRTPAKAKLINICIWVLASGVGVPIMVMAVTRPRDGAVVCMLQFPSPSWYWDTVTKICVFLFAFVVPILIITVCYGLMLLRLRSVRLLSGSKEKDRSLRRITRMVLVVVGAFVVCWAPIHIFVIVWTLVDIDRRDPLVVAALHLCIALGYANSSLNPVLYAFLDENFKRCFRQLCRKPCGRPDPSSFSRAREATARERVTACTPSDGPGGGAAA

Sequence | Ki (hDOPr) [nM] | Selectivity DOPr/KOPr (GTPγS) (hKOPr) | Selectivity MOPr/KOPr (GTPγS) (hKOPr) | hKOPr % stim, stimulation of [35S]GTPγS binding (hKOPr) [%] | preference for hKOPr over hDOPr (GTPγS) (hKOPr) [fold] | Emax (hKOPr) [%] | EC50 (hKOPr; [2]) [nM] | EC50 (hKOPr; [3]) [nM] | hMOPr % stim, stimulation of [35S]GTPγS binding (hMOPr) [%] | EC50 (hMOPr) [nM] | p38 phosphorylation compared to DynB_WT [1] | potency for hKOPr as compared to DynB (GTPγS) (hKOPr) | preference for hKOPr over hMOPr (GTPγS) (hKOPr) [fold]
YGGFSRRQFKVVT [DynB_L5S] | 573 ± 22.6 | 17 | 6 | 99.1 ± 2.1 | 17 | 99.1 ± 2.1 | 17.7 ± 2.84 | 17.7 ± 2.8 | 93.4 ± 5.6 | 107 ± 8.6 | significantly less phosphorylated | – | –
YGAFLRRAFKVVT [DynB_G3A/Q8A] | 417 ± 52 | 84 | 20 | 88.6 ± 3.1 | 84 | 88.6 ± 3.1 | 14.6 ± 1.57 | 14.6 ± 1.6 | 111 ± 7.7 | 297 ± 46.6 | significantly less phosphorylated | minor reduction in the potency | 20
